Laboratory results published in US20260200849A1, “CATIONIC LIPIDS AND PREPARATION METHOD THEREOF” (RiboX Therapeutics HK Limited, priority 2024, published 2026).
Several values for one entry are separate records, joined by “and”; a condition that tells them apart may be missing. Identical values can stand only once.

Assays:
injection site skin = test: In vivo tolerability after intradermal injection: H&E staining of injection site skin; parameters: species or system C57BL/6J mice; key to Infiltration, mononuclear cells, dermis/subcutaneous, focal, Grade / Edema, subcutaneous, focal, Grade / Erosion, focal, Grade / Skin, Grade: 1==minimal; 2=mild; 3=moderate; 4=marked; 5=severe; N=Normal; NA=Not applicable; —=No data; conditions: intradermal 0.15 mg/kg, 72 h, Formulation 001, RNA 331; for Total score: sum of lesion grades of the group (N=3)
Description: 7-8 week old, female C57BL/6J mice (N=3) were injected with 0.15 mg*kg−1 of RNA-LNIPs encoding for firefly-luciferase by intradermal injection. At 72-hours post injection, injection site skin from each animal was collected in 10% formalin, for H&E staining. PBS group (N=2) as control. (Note: 1==minimal, 2=mild, 3=moderate, 4=marked, 5=severe; N=Normal; NA=Not applicable; —=No data)

hEPO = test: In vivo expression by IM: serum hEPO concentration by ELISA; conditions: IM 0.075 mg/kg, male C57BL/6J mice N=3, Formulation 001, RNA 019
Description: Circular RNA payloads were suspended in 25 mM Acetate Buffer (pH 4.5). To form LNPs, three volumes of human erythropoietin (hEPO) encoding cirRNA (SEQ ID NO:2), were mixed with one volume of lipids in ethanol solution by microfluidic mixing with the INano™ L+ (Micro& Nano) at a flow rate of 12 ml/min. The molar ratio of ionizable lipid to ribonucleotide was 6. After encapsulation, the particles were dialyzed twice against PBS. The LNP formulation was concentrated to targeted RNA concentration by Amicon® Ultra Centrifugal Filter (100 kDa MWCO) and filtered by a 0.65/0.22 um sterile filter.
6-8 week old, male C57BL/6J mice (N=3) were injected with 0.075 mg*kg−1 of RNA-LNPs encoding for hEPO by intramuscular injection. At 2-/6-/24-/48-/72 h-hours post injection, about 80 μL blood will be harvested and immediately added to the procoagulant containing tube. Stand for 30 min at room temperature and then centrifuged at 2500 g×10 min to obtain serum. About 30 μL serum samples will be aliquoted for hEPO concentration detection by ELISA kit (STEMCELL Technologies).

IL-6 = test: In vivo tolerability by IV: serum IL-6 by Luminex; parameters: species or system C57BL/6J mice; conditions: Formulation No. 001, RNA No. 331, male C57BL/6J mice, 1.0 mg*kg/1 intravenous
In short: (§1)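 Male C57BL/6J mice aged 6-8 weeks (N=3) received 1.0 mg*kg−1 firefly-luciferase RNA-LNPs intravenously, with PBS as negative control. Serum taken at 2 and 24 h post-injection was assayed for MCP-1 and IL-6 by Luminex.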

C57BL/6J mice = test: In vivo expression by IV, 1.0 mg/kg luciferase RNA-LNPs, whole-body and organ IVIS luminescence; conditions: Formulation No. 001, RNA No. 331; male C57BL/6J mice, 1.0 mg*kg−1 intravenous, 24-hours post injection
In short: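 Male C57BL/6J mice, 6-8 weeks old (N=3), received 1.0 mg*kg−1 firefly-luciferase RNA-LNPs IV. At 24 h post-dose, luciferin (15 mg/ml) was given IP, and whole-body, liver, spleen, kidney, small and large intestine luminescence was imaged by IVIS.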

MCP-1 = test: In vivo tolerability by IV: serum MCP-1 by Luminex; parameters: species or system C57BL/6J mice; conditions: Formulation No. 001, RNA No. 331, male C57BL/6J mice, 1.0 mg*kg/1 intravenous
In short: as §1

SMILES	Edema, subcutaneous, focal, Grade (injection site skin; per animal)	Erosion, focal, Grade (injection site skin; per animal)	Infiltration, mononuclear cells, dermis/subcutaneous, focal, Grade (injection site skin; per animal)	Skin, Grade (injection site skin; per animal)	Total score (injection site skin)	hEPO conc. (ng/mL) at 2 h (hEPO; 2 h)	hEPO conc. (ng/mL) at 6 h (hEPO; 6 h)	hEPO conc. (ng/mL) at 24 h (hEPO; 24 h)	hEPO conc. (ng/mL) at 48 h (hEPO; 48 h)	hEPO conc. (ng/mL) at 72 h (hEPO; 72 h)	IL-6 at 2 h (IL-6; 2 hours post injection)	IL-6 at 24 h (IL-6; 24 hours post injection)	Kidney (p/s) (C57BL/6J mice)	Large intestine (p/s) (C57BL/6J mice)	Liver (p/s) (C57BL/6J mice)	Small intestine (p/s) (C57BL/6J mice)	Spleen (p/s) (C57BL/6J mice)	Whole body (p/s) (C57BL/6J mice)	MCP-1 at 2 h (MCP-1; 2 hours post injection)	MCP-1 at 24 h (MCP-1; 24 hours post injection)
CCCCC/C=C\C/C=C\CCCCCCCC(=O)NC(COC(=O)NCCN1CCCCC1)C(=O)OCCCCCCCC(=O)OC(CCCCCCCC)CCCCCCCC (stereo not drawn) [Lipid 549]	— and 1 (2×)	—	— and 1 (2×)	N	4	2.47 ng/mL	7.26 ng/mL	12.57 ng/mL	2.61 ng/mL	0.87 ng/mL										
CCCCCCCC/C=C\CCCCCCCC(=O)NC(COC(=O)NCCN1CCCCC1)C(=O)OCCCCCCCCOC(=O)C(CCCCCC)CCCCCCCC (stereo not drawn) [Lipid 700]	1 (2×) and 2	—	1		7															
CCCCCCCCC(CCCCCC)C(=O)OCCCCCCCCOC(=O)NC(COC(=O)NCCN1CCCCC1)C(=O)OCCCCCCCCOC(=O)C(CCCCCC)CCCCCCCC (stereo not drawn) [Lipid 888]											5.5 pg/mL	5.71 pg/mL	2.72E+07 p/s	1.07E+08 p/s	4.61E+09 p/s	8.59E+08 p/s	2.55E+08 p/s	4.10E+09 p/s	396 pg/mL	206 pg/mL
